Series [1] is described as follows: Porphyrin fluorescence in buffer. In kind it is physicochemical. The note with it: 5 μM, 10 mM phosphate buffer pH 7.4, excitation 425 nm; vs pristine MCPTPyP. An excerpt:
Peptide conjugation influences the spectral features of the porphyrin chromophore as evidenced by the red shift in the absorption maximum in the region of the Soret band region. The Q bands are also affected, particularly in the Cu‐Ph‐Pep and Zn‐Ph‐Pep compounds (Figure 1). In this case the presence of a metal ion within the porphyrin's core might contribute to the observed spectral profile of these compounds. […] The fluorescence spectra of the investigated systems were also acquired in view of the interaction of the studied conjugates with cells (see below biological section).[41] The fluorescence spectra were recorded with the photoexcitation at 425±5 nm, in 10 mM phosphate buffer pH 7.4 and 5 μM concentration. The emission spectrum of the porphyrin precursor MCPTPyP ( Ph ) was also obtained for the sake of comparison.
Spectra were recorded on a Horiba Fluoro‐max‐4 spectrofluorometer from 440–800 nm in 1 nm steps, at an excitation wavelength λexc=425 nm, at room temperature. The final fluorescence spectra represent averages of at least three measurements. Bandwidths of 5 nm for both excitation and emission were used. The sample of the compound used to record absorption spectra were the same as those for the CD spectra.

Series [2] concerns the target T1, Aβ42 (Homo sapiens, UniProt P05067). As to the kind of experiment: Grating-Coupled Interferometry (GCI) binding to immobilized Aβ42. Particulars: GCI fit quality parameter.
Series [3] addresses T1, Aβ42. Briefly: UV-Vis of conjugates with equimolar Aβ42. In kind it is biochemical. The note with it: 5 μM conjugate, equimolar Aβ42, 10 mM phosphate buffer pH 7.4, 0, 24, 48 and 120 h. As for the experimental part:
The UV‐Vis spectra of porphyrin‐peptide conjugates (5 μM) were recorded in the presence of an equimolar ration of Aβ42 monomers at 0, 24, 48 and 120 h (Figure 2S). […] Therefore, the interaction of the peptide‐porphyrin conjugates with Aβ was further studied using CD spectroscopy. The Aβ42 aggregation process was monitored either in the absence or in the presence of an equimolar amount of the conjugated peptides. A series of CD control experiments were preventively carried out to assess the propensity of the porphyrin‐peptide conjugates to adopt a β‐sheet conformation. The corresponding CD curves are shown in the supplementary material (Figure 3S). […] We then evaluated the ability of the porphyrin‐peptide conjugates to affect the Aβ42’s aggregation process. This was accomplished by running a series of CD experiments on the binary systems in the same experimental conditions as the control CD measurements. A 5 μM Aβ42 sample was used as a positive control of the aggregation process (Figure 3, panel a). In this case, the curve profiles indicate that at 0 h, Aβ42 is predominantly in the random coil conformation, as evidenced by the negative ellipticity around 200 nm. […] The typical dichroic profile characterized by a negative ellipticity at λ=222 nm and a positive band at λ=200 is indicative of this event (Figure 3, panel a).
Spectra were recorded on a Jasco V‐670 Spectrophotometer at room temperature. All measurements were performed in the 300–650 nm wavelength region, in a 10 mM phosphate buffer solution at pH 7.4 using a 1 cm path length quartz cell. The spectra of all the peptide‐porphyrin conjugates, either in the absence or in the presence of equimolar Aβ42, were acquired at 5 μM. In some cases, the same sample solution was used to run the CD spectra. The final concentrations of Aβ42 and peptide conjugates were 5 μM (1 : 1 molar ratio).

Data on 1 molecule can be found in publication PMC11610669, “A Spectroscopic Study on the Amyloid‐β Interaction with Clicked Peptide‐Porphyrin Conjugates: a Vision Toward the Detection of Aβ Peptides in Aqueous Solution” (Chembiochem, 2024).

T1 sequence (P05067 672-713 limits assumed): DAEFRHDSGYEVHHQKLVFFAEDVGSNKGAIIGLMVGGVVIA

For the molecule `COC(=O)[C@H](Cc1cn(CCCC[C@H](NC(=O)CNC(C)=O)C(=O)N2CCC[C@H]2C(=O)NCC(=O)N[C@@H](CCCCN)C(=O)N[C@@H](CC(C)C)C(=O)N[C@H](C(=O)N[C@@H](Cc2ccccc2)C(=O)N[C@@H](Cc2ccccc2)C(N)=O)C(C)C)nn1)NC(=O)c1ccc(-c2c3nc(c(-c4cc[n+](C)cc4)c4ccc([nH]4)c(-c4cc[n+](C)cc4)c4nc(c(-c5cc[n+](C)cc5)c5ccc2[nH]5)C=C4)C=C3)cc1` [Zn‐Ph‐Pep], in series [1], the fluorescence emission intensity result was “somewhat decreased”. The “χ^2 (average of the squared residuals, fitting confidence)” value in series [2] came out at 0.49±0.09. In series [3], the “UV-Vis spectral change in presence of Aβ42” value was “may suggest a rapid formation of aggregated species”.
